Assays:
[1] = system: plasma protein; assay: Mouse plasma protein binding (PPB); format: in vitro ADME
Procedure: (§1) These assays were performed according to known methods as generally described in the following references: Conde-Ceide et al. ACS Med. Chem. Lett. 2015, 6, 716-720; Morris et al. J. Med. Chem. 2014, 57, 10192-10197; and Bubser et al. ACS Chem. Neurosci. 2014, 5, 920-942. Abbreviations which have been used in the descriptions of the following tables are; PPB is plasma protein binding; BHB is brain homogenate binding; and CLint is intrinsic clearance in hepatic microsomes.

[2] = target: T1, CYP1A2 (Homo sapiens, UniProt P05177); assay: P450 inhibition 1A2; format: in vitro ADME
T1 sequence (P05177 1-516): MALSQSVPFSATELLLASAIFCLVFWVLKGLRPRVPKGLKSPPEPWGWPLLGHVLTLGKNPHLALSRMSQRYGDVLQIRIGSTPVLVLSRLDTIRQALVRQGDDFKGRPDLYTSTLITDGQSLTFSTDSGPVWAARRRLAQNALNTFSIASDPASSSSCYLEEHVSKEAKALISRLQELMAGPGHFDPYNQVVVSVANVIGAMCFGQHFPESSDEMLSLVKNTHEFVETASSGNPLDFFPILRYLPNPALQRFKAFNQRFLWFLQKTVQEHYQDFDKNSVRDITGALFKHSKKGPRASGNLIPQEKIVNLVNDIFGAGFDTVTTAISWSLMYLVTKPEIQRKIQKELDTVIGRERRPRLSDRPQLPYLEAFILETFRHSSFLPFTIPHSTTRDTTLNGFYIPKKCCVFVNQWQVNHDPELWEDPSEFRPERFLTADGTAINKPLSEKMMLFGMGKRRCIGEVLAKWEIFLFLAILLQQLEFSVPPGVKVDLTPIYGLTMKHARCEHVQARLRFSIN
Procedure: as §1

[3] = system: plasma protein; assay: Rat plasma protein binding (PPB); format: in vitro ADME
Procedure: as §1

[4] = Rat hepatic microsomal intrinsic clearance; format: in vitro ADME; settings: rat hepatic microsomes
Procedure: as §1

[5] = target: T2, human TREK-1 (Homo sapiens, UniProt O95069); assay: TREK-1 Manual Patch Clamp (hMPC) assay; format: cell-based; settings: CHO-K1 cells stably expressing human TREK-1; whole-cell current at 0 mV
T2 construct: expressed in transfected cells
T2 sequence (O95069 1-426): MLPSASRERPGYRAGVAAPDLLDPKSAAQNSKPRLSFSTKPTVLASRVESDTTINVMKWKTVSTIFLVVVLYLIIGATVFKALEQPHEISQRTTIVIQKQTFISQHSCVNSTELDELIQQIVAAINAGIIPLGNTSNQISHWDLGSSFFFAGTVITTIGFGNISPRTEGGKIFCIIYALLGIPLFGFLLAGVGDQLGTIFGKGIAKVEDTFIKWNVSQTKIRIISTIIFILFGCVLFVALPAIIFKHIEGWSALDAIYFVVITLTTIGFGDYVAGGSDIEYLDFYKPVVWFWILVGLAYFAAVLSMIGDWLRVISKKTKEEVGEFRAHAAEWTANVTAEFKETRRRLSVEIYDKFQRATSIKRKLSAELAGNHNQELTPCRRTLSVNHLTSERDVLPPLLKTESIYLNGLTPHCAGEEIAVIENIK
Procedure: The term “patch clamp technique” herein refers to the “gold standard” technique for evaluating TREK channel pharmacology. The detail method is described below.
CHO-K1 cells stably expressing human TREK-1 or HEK293 cells stably expressing human TREK-2 are plated on glass coverslips, and voltage clamped in the whole-cell configuration of the patch clamp technique. Cells were voltage clamped at a holding potential of −80 mV and the stepped to 0 mV for 500 msec. The voltage was subsequently ramped from −120 mV to +80 mV over a 500 msec duration. This step-ramp protocol was repeated every 10 sec. The bathing solution contained the following: 135 mM NaCl, 5 mM KCl, 2 mM CaCl2, 1 mM MgCl2, 5 mM D-Glucose, 10 mM HEPES, 10 mM sucrose (adjusted to pH 7.4 with NaOH, 300 mosmol/kg H2O). The pipette solution contained the following: 135 mM KCl, 2 mM MgCl2, 1 mM EGTA, 10 mM HEPES, 2 mM Na2ATP (adjusted to pH 7.35 with KOH, 285 mosmol/kg H2O). Test compounds were dissolved into the bathing solution. Experiments on TREK-2 were terminated with the addition of the control compound (tert-butyl (3-((4-(benzyloxy)-2-methylphenyl)carbamoyl)-4-chlorophenyl)carbamate) so that maximal inhibition could be determined. The effects of test compound on the currents were calculated at 0 mV using the following equations:
For CHO cells expressing TREK-1 channel: % inhibition=(1-post current/pre current)×100
The compounds shown in Table 2 were prepared in an analogous manner with the appropriate starting materials, and evaluated in our TREK-1 Manual Patch Clamp (hMPC) assay.

[6] = target: CYP3A4 (Homo sapiens, UniProt P08684); assay: P450 inhibition 3A4; format: in vitro ADME
Sequence of CYP3A4 (P08684 whole entry): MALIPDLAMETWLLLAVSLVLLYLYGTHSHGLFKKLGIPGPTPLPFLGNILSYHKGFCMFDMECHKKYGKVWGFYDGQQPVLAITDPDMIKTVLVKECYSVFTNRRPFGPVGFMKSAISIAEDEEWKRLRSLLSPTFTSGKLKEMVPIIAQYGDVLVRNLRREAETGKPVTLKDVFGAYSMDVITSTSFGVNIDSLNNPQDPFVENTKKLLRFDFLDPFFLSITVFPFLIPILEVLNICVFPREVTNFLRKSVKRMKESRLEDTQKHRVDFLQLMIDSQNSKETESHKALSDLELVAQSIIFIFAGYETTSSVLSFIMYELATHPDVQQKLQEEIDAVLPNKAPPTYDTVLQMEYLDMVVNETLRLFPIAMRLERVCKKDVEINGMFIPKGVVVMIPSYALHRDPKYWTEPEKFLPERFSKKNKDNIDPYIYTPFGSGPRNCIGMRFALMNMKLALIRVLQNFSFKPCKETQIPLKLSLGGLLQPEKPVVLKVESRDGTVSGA
Procedure: as §1

[7] = Human hepatic microsomal intrinsic clearance; format: in vitro ADME; settings: human hepatic microsomes
Procedure: as §1

[8] = Rat in vivo pharmacokinetics and brain distribution (i.v. cassette); settings: iv, rat i.v. cassette injection
Procedure: Compound 12 was tested in several in vivo assays to investigate pharmacokinetics and brain distribution. Abbreviations which have been used in the descriptions of following tables are; CLp is plasma clearance; Vss is volume of distribution at steady state; Elim. t1/2 is half-life for elimination; Kp is tissue distribution partition coefficient; Kp,uu is unbound tissue distribution partition coefficient.

[9] = target: T2, human TREK-1; assay: TREK-1 Thallium (Tl+) flux assay, Method 1; format: cell-based; settings: TREK-1 Thallium (Tl+) flux assay; values without footnote *12 are Method 1
Procedure, shortened: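 CHO-K1 cells stably expressing human TREK-1, loaded with Thallos dye, received compound or 0.3% DMSO vehicle for 10 min before thallium stimulus buffer. ΔRatio is fluorescence at 25 s after thallium addition over mean pre-addition fluorescence; % inhibition calculated from it.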

For `CC(=O)N[C@H]1CC[C@@H](n2ncc(Cl)c2C(=O)Nc2ncc(C#Cc3ccccc3)cc2C)CC1` [Compound 12, 1-(cis-4-acetamidocyclohexyl)-4-chloro-N-(3-methyl-5-(phenylethynyl)pyridin-2-yl)-1H-pyrazole-5-carboxamide], which “Mouse PPB (% bound)” value [1] is on record?
Its value is 99.2 % bound.

And the IC50 [2]?
Its IC50 is 8600 nM.

What about the “Rat PPB (% bound)” value [3] of the same molecule?
The value was 98.4 % bound.

And the CLint scaled [4]?
The CLint scaled was 54 mL/min/kg.

What about the IC50 [5] of the same molecule?
The IC50 was 60 nM.

What about the IC50 [6] of the same molecule?
The IC50 was greater than 30000 nM.

And the CLint scaled [7]?
The CLint scaled was 16 mL/min/kg.

And the Kp uu ([8]; brain, unbound tissue distribution partition coefficient, read-out: Rat brain: plasma Kp, uu)?
The Kp uu was 0.19.

What about the clearance ([8]; plasma clearance, read-out: Rat CLp) of the same molecule?
The clearance was 28 mL/min/kg.

What about the half-life ([8]; plasma, half-life for elimination, read-out: Rat Elim. t1/2 (converted)) of the same molecule?
The half-life was 2 h.

And the Vd ([8]; plasma, volume of distribution at steady state, read-out: Rat Vss)?
The Vd was 4.7 L/kg.

And the IC50 [9]?
Its IC50 is 130 nM.

Source: patent US20240182445A1 (ONO PHARMACEUTICAL CO., LTD., priority 2019, published 2024)
